Results published in patent publication US5391540A, “Substituted pyridine compounds” (Rohm and Haas Company, priority 1993, dated 1995).

Legend:
Format in all cases: in vivo
Barnyardgrass = experiment: Pre-emergent herbicidal activity (Table A); conditions: Echinochloa crus-galli, pre-emergence, Bygr, 11.2 kg/ha, 10-14 days, read-out: herbicidal rating (% inhibition)
In short: (§1)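 Seeds or perennial propagules set on compacted topsoil, then covered with soil mixed with a known amount of test compound applied in acetone or water carrier. Ratings assigned on a scale based on percent inhibition of each species.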

Cocklebur = experiment: Pre-emergent herbicidal activity (Table A); conditions: Xanthium strumarium, pre-emergence, Cobu, 11.2 kg/ha, 10-14 days, read-out: herbicidal rating (% inhibition)
In short: as §1

Downy Brome = experiment: Pre-emergent herbicidal activity (Table A); conditions: Bromus tectorum, pre-emergence, Dobr, 11.2 kg/ha, 10-14 days, read-out: herbicidal rating (% inhibition)
In short: as §1

Morningglory = experiment: Pre-emergent herbicidal activity (Table A); conditions: Ipomoea, pre-emergence, Mogl, 11.2 kg/ha, 10-14 days, read-out: herbicidal rating (% inhibition)
In short: as §1

Velvetleaf = experiment: Pre-emergent herbicidal activity (Table A); conditions: Abutilon theophrasti, pre-emergence, Vele, 11.2 kg/ha, 10-14 days, read-out: herbicidal rating (% inhibition)
In short: as §1

Yellow Nutsedge = experiment: Pre-emergent herbicidal activity (Table A); conditions: Cyperus, pre-emergence, Yens, 11.2 kg/ha, 10-14 days, read-out: herbicidal rating (% inhibition)
In short: as §1

Bygr = experiment: plant injury after spraying emerged plants (Table D); parameters: scale not given here
In short: (§2)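 Seeds or vegetative propagules of annual and perennial species were pressed into steam-sterilized silt loam, covered with 1.27 cm of topsoil/peat-moss/vermiculite mix, and grown on greenhouse benches with subirrigation. Injury was scored on emerged plants after spraying.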

Grft = experiment: as above; parameters: scale not given here
In short: as §2

Grso = experiment: as above; parameters: scale not given here
In short: as §2

Lacg = experiment: as above; parameters: scale not given here
In short: as §2

Mogl = experiment: as above; parameters: scale not given here
In short: as §2

Prmi = experiment: as above; parameters: scale not given here
In short: as §2

Rice = experiment: as above; parameters: scale not given here
In short: as §2

Sobe = experiment: as above; parameters: scale not given here
In short: as §2

Whez = experiment: as above; parameters: scale not given here
In short: as §2

Dobr = experiment: as above

Compound: COC(=O)c1c(OC)nc(C(F)(F)F)c(C(=O)n2cccn2)c1CC1CC1 [Compound 116, 3-pyridinecarboxylic acid, 4-(cyclopropylmethyl)-2-methoxy-5-(1H-pyrazo1-1-ylcarbonyl)-6-(trifluoromethyl)-, methyl ester]
- inhibition at 11200 g/ha (Barnyardgrass): 75 to 100%
- inhibition at 11200 g/ha (Cocklebur): 50 to 74%
- inhibition at 11200 g/ha (Downy Brome): 75 to 100%
- inhibition at 11200 g/ha (Morningglory): 75 to 100%
- inhibition at 11200 g/ha (Velvetleaf): 75 to 100%
- inhibition at 11200 g/ha (Yellow Nutsedge): 75 to 100%
- plant injury rating, Bygr (Bygr; 0.0701 kg/ha): 0
- plant injury rating, Bygr (Bygr; 0.2803 kg/ha): 0
- plant injury rating, Bygr (Bygr; 1.1210 kg/ha): 0
- plant injury rating, Bygr (Bygr; 5.6050 kg/ha): 1
- plant injury rating, Grft (Grft; 0.0701 kg/ha): 0
- plant injury rating, Grft (Grft; 0.2803 kg/ha): 0
- plant injury rating, Grft (Grft; 1.1210 kg/ha): 0
- plant injury rating, Grft (Grft; 5.6050 kg/ha): 1
- plant injury rating, Grso (Grso; 0.2803 kg/ha): 0
- plant injury rating, Grso (Grso; 1.1210 kg/ha): 0
- plant injury rating, Grso (Grso; 5.6050 kg/ha): 1
- plant injury rating, Lacg (Lacg; 0.0701 kg/ha): 2
- plant injury rating, Lacg (Lacg; 0.2803 kg/ha): 2
- plant injury rating, Lacg (Lacg; 1.1210 kg/ha): 2
- plant injury rating, Lacg (Lacg; 5.6050 kg/ha): 2
- plant injury rating, Mogl (Mogl; 0.0701 kg/ha): 2
- plant injury rating, Mogl (Mogl; 0.2803 kg/ha): 1
- plant injury rating, Mogl (Mogl; 1.1210 kg/ha): 2
- plant injury rating, Mogl (Mogl; 5.6050 kg/ha): 2
- plant injury rating, Prmi (Prmi; 0.0701 kg/ha): 0
- plant injury rating, Prmi (Prmi; 0.2803 kg/ha): 0
- plant injury rating, Prmi (Prmi; 1.1210 kg/ha): 0
- plant injury rating, Prmi (Prmi; 5.6050 kg/ha): 0
- plant injury rating, Rice (Rice; 0.0701 kg/ha): 0
- plant injury rating, Rice (Rice; 0.2803 kg/ha): 0
- plant injury rating, Rice (Rice; 1.1210 kg/ha): 0
- plant injury rating, Rice (Rice; 5.6050 kg/ha): 0
- plant injury rating, Sobe (Sobe; 0.0701 kg/ha): 1
- plant injury rating, Sobe (Sobe; 0.2803 kg/ha): 1
- plant injury rating, Sobe (Sobe; 1.1210 kg/ha): 2
- plant injury rating, Sobe (Sobe; 5.6050 kg/ha): 2
- plant injury rating, Whez (Whez; 0.0701 kg/ha): 0
- plant injury rating, Whez (Whez; 0.2803 kg/ha): 0
- plant injury rating, Whez (Whez; 1.1210 kg/ha): 0
- plant injury rating, Whez (Whez; 5.6050 kg/ha): 0
- plant injury rating, Dobr (Dobr; 0.0701 kg/ha): 0
- plant injury rating, Dobr (Dobr; 0.2803 kg/ha): 0
- plant injury rating, Dobr (Dobr; 1.1210 kg/ha): 0
- plant injury rating, Dobr (Dobr; 5.6050 kg/ha): 0

Compound: COC(=O)c1c(OC)nc(C(F)(F)F)c(C(=O)SC)c1C1CCC1 [Compound 137, 3-pyridinecarboxylic acid, 4-cyclobuty1-2-methoxy-5-[(methylthio)carbonyl]-6-(trifluoromethyl)-, methyl ester]
- inhibition at 11200 g/ha (Barnyardgrass): 75 to 100%
- inhibition at 11200 g/ha (Cocklebur): 75 to 100%
- inhibition at 11200 g/ha (Downy Brome): 75 to 100%
- inhibition at 11200 g/ha (Morningglory): 75 to 100%
- inhibition at 11200 g/ha (Velvetleaf): 75 to 100%
- inhibition at 11200 g/ha (Yellow Nutsedge): 75 to 100%
- plant injury rating, Bygr (Bygr; 0.2803 kg/ha): 1
- plant injury rating, Bygr (Bygr; 1.1210 kg/ha): 2
- plant injury rating, Bygr (Bygr; 5.6050 kg/ha): 2
- plant injury rating, Grft (Grft; 0.2803 kg/ha): 2
- plant injury rating, Grft (Grft; 1.1210 kg/ha): 2
- plant injury rating, Grft (Grft; 5.6050 kg/ha): 2
- plant injury rating, Grso (Grso; 0.2803 kg/ha): 0
- plant injury rating, Grso (Grso; 1.1210 kg/ha): 0
- plant injury rating, Grso (Grso; 5.6050 kg/ha): 2
- plant injury rating, Lacg (Lacg; 0.2803 kg/ha): 3
- plant injury rating, Lacg (Lacg; 1.1210 kg/ha): 3
- plant injury rating, Lacg (Lacg; 5.6050 kg/ha): 3
- plant injury rating, Mogl (Mogl; 0.2803 kg/ha): 1
- plant injury rating, Mogl (Mogl; 1.1210 kg/ha): 1
- plant injury rating, Mogl (Mogl; 5.6050 kg/ha): 2
- plant injury rating, Prmi (Prmi; 0.2803 kg/ha): 0
- plant injury rating, Prmi (Prmi; 1.1210 kg/ha): 0
- plant injury rating, Prmi (Prmi; 5.6050 kg/ha): 1
- plant injury rating, Rice (Rice; 0.2803 kg/ha): 0
- plant injury rating, Rice (Rice; 1.1210 kg/ha): 1
- plant injury rating, Rice (Rice; 5.6050 kg/ha): 1
- plant injury rating, Sobe (Sobe; 0.2803 kg/ha): 0
- plant injury rating, Sobe (Sobe; 1.1210 kg/ha): 2
- plant injury rating, Sobe (Sobe; 5.6050 kg/ha): 2
- plant injury rating, Whez (Whez; 0.2803 kg/ha): 0
- plant injury rating, Whez (Whez; 1.1210 kg/ha): 0
- plant injury rating, Whez (Whez; 5.6050 kg/ha): 0
- plant injury rating, Dobr (Dobr; 0.2803 kg/ha): 0
- plant injury rating, Dobr (Dobr; 1.1210 kg/ha): 1
- plant injury rating, Dobr (Dobr; 5.6050 kg/ha): 1

Compound: COC(=O)c1c(OC)nc(C(F)(F)F)c(C(=O)n2ccc(F)n2)c1C1CCC1 [Compound 140, 3-pyridinecarboxylic acid, 4-cyclobuty1-5-[(3-fluoro-1H-pyrazo1-1-yl)carbonyl]-2-methoxy-6-(trifluoromethyl)-, methyl ester]
- inhibition at 11200 g/ha (Barnyardgrass): 75 to 100%
- inhibition at 11200 g/ha (Cocklebur): 0 to 24%
- inhibition at 11200 g/ha (Downy Brome): 75 to 100%
- inhibition at 11200 g/ha (Morningglory): 75 to 100%
- inhibition at 11200 g/ha (Velvetleaf): 75 to 100%
- inhibition at 11200 g/ha (Yellow Nutsedge): 0 to 24%
- plant injury rating, Bygr (Bygr; 0.2803 kg/ha): 0
- plant injury rating, Bygr (Bygr; 1.1210 kg/ha): 0
- plant injury rating, Bygr (Bygr; 5.6050 kg/ha): 0
- plant injury rating, Grft (Grft; 0.2803 kg/ha): 0
- plant injury rating, Grft (Grft; 1.1210 kg/ha): 0
- plant injury rating, Grft (Grft; 5.6050 kg/ha): 0
- plant injury rating, Grso (Grso; 0.2803 kg/ha): 0
- plant injury rating, Grso (Grso; 1.1210 kg/ha): 0
- plant injury rating, Grso (Grso; 5.6050 kg/ha): 0
- plant injury rating, Lacg (Lacg; 0.2803 kg/ha): 2
- plant injury rating, Lacg (Lacg; 1.1210 kg/ha): 2
- plant injury rating, Lacg (Lacg; 5.6050 kg/ha): 3
- plant injury rating, Mogl (Mogl; 0.2803 kg/ha): 2
- plant injury rating, Mogl (Mogl; 1.1210 kg/ha): 2
- plant injury rating, Mogl (Mogl; 5.6050 kg/ha): 2
- plant injury rating, Prmi (Prmi; 0.2803 kg/ha): 0
- plant injury rating, Prmi (Prmi; 1.1210 kg/ha): 0
- plant injury rating, Prmi (Prmi; 5.6050 kg/ha): 0
- plant injury rating, Rice (Rice; 0.2803 kg/ha): 0
- plant injury rating, Rice (Rice; 1.1210 kg/ha): 0
- plant injury rating, Rice (Rice; 5.6050 kg/ha): 0
- plant injury rating, Sobe (Sobe; 1.1210 kg/ha): 2
- plant injury rating, Sobe (Sobe; 5.6050 kg/ha): 2
- plant injury rating, Whez (Whez; 0.2803 kg/ha): 0
- plant injury rating, Whez (Whez; 1.1210 kg/ha): 0
- plant injury rating, Whez (Whez; 5.6050 kg/ha): 0
- plant injury rating, Dobr (Dobr; 0.2803 kg/ha): 0
- plant injury rating, Dobr (Dobr; 1.1210 kg/ha): 0
- plant injury rating, Dobr (Dobr; 5.6050 kg/ha): 0
